Laboratory results reported in US7045138B2, “Composition for mitigation of insects and/or mollusca” (American Natural Technology Sciences, Inc., priority 2000, dated 2006).

Tested on: Fire Ants
Assay: Fire ant mound field tests of bait/borate formulations
Type: in vivo, Solenopsis invicta
Procedure: The following components were tested either alone or in combinations for their ability to attract Fire Ants: • 1. Cow manure dropping in an infested area; • 2. Pelletized cow manure; • 3. Milk; • 4. Powdered, fresh and pelletized whey; • 5. Sugar solutions of varying concentrations; • 6. Raw fruit and vegetables of various kinds and concentrates; • 7. Various soft drinks containing sugar; • 8. Bacon and other raw meats; • 9. Vegetable and animal oils, both in liquid or solid; • 10. Dog and cat foods in bags, cans, or packaged in some other manner; • 11. Corn or other vegetable products in the form of meal, syrup, cracked, particles and flakes and other particles; • 12. Wheat and rice as bleached and unbleached, flower or granules; • 13. Millet seeds whole and crushed; • 14. Sunflower seeds whole, crushed and with various vegetable oils added; • 15. Microcapsules of whey and other materials, made to hold various, foods, etc.; and • 16. Capsules made of various vegetable water, sugar, starches, proteins, etc. that contain the bait and/or borates and/or DE.
Mounds were selected of varying sizes measured in diameter: • 1. Small mound (1 inch to 6 inches) • 2. Medium mound (6 inches to 3.0 feet) • 3. Large mound (3.0 feet and larger) • 4. Control
When possible, isolated mounds were selected.
The formulations were tested individually at different sites: • 1. Standard was one level teaspoon for a small mound, two for a medium mound and three or more for a large mound; and • 2. Volume vs. weight was noted.
The following data was collected for each site: • 1. Location • 2. Data and time of application • 3. Observation are conducted at: • a. One hour; • b. Four hours; • c. Twelve hours; • d. One day; • e. Two days; • f. Four days; • g. Eight days; • h. Sixteen days; and • i. Intermittent observations based upon climatic conditions. • 4. Weather data collected include: • a. Temperature; • b. Humidity; • c. Rainfall (time of day and extent); and • d. Wind speed and direction • 5. General observations
The time of application is preferably near evening (5 p.m. or later) or early morning (5 a.m. to 9 a.m.).

| Substance | degree of control (DOT combined with whey bait) | acceptance by the Fire Ants (incorporated with the baits tested) | acceptable formulation level for control into the second generation (preliminary data) [%] | acceptable formulation level for first generation control (preliminary data) | performance (5% substituted for the DOT, with whey) |
| --- | --- | --- | --- | --- | --- |
| Disodium octoborate tetrahydrate [DOT] | high degree of control | readily accepted | ~1.0 | ~0.05 % of the formulation |  |
| calcium borate |  |  |  |  | superior performance |
